Tests used:
Type in all cases: cell-based
[1] = test system: mantle cell lymphoma cell (Mino or JeKo-1); assay: Antiproliferative effect, MTS cell viability assay; details: 72 h; for IC50: mantle cell lymphoma cell (Mino or JeKo-1), MTS assay, read-out: IC50 (anti-proliferation)
Procedure, shortened: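 Mino cells treated with compounds at 0, 0.0001, 0.001, 0.01, 0.1, 1 μM for 72 h; palbociclib and abemaciclib as positive controls. Viability by MTS, formazan absorbance read at 490 nm.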

CDK6 = target: T1, CDK6 (Homo sapiens, UniProt Q00534); assay: CDK6 degradation (DC50, Dmax)
T1 construct: endogenous in cells

CDK4 = target: T2, CDK4 (Homo sapiens, UniProt P11802); assay: CDK4 degradation (DC50, Dmax)
T2 construct: endogenous in cells
T2 sequence (P11802 whole entry): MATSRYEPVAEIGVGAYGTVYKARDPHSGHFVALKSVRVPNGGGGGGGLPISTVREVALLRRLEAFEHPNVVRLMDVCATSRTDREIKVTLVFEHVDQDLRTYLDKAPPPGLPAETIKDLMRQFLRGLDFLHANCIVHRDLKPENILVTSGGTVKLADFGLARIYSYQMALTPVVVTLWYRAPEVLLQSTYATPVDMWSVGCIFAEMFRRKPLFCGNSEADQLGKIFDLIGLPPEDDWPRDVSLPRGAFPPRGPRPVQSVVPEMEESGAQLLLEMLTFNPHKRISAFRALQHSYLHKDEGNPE

T1 sequence (Q00534 whole entry): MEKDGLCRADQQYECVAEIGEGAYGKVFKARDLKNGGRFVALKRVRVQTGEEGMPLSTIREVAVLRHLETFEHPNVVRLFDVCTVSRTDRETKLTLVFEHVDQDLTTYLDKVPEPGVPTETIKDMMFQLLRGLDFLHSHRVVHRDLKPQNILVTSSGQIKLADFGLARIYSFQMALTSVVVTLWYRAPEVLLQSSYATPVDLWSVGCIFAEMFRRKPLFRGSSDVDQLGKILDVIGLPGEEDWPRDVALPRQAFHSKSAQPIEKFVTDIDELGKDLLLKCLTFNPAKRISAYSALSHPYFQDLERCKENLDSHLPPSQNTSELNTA

| SMILES | IC50 [1] [nM] | DC50 (CDK6) [nM] | Dmax (CDK6) [%] | DC50 (CDK4) [nM] | Dmax (CDK4) [%] | inhibition of cell proliferation of Mino cells ([1]; Mino cells, 0-1 μM, result in words) |
| --- | --- | --- | --- | --- | --- | --- |
| CC(=O)c1c(C)c2cnc(Nc3ccc(N4CCN(C(=O)N5CCN(CCN6CCN(c7ccc8c(c7)C(=O)N(C7CCC(=O)NC7=O)C8=O)CC6)CC5)CC4)cn3)nc2n(C2CCCC2)c1=O (stereo not shown) [Compound 21, 5-(4-(2-(4-(4-(6-((6-acetyl-8-cyclopentyl-5-methyl-7-oxo-7,8-dihydropyrido[2,3-d]pyrimidin-2-yl)amino)pyridin-3-yl)piperazine-1-carbonyl)piperazin-1-yl)ethyl)piperazin-1-yl)-2-(2,6-dioxopiperidin-3-yl)isoindoline-1,3-dione] | 50 to 200 | 50 to 200 | > 60 | 50 to 200 | > 60 | – |
| CC(=O)c1c(C)c2cnc(Nc3ccc(N4CCN(C5CCN(C(=O)N6CCN(c7ccc8c(c7)CN(C7CCC(=O)NC7=O)C8=O)CC6)CC5)CC4)cn3)nc2n(C2CCCC2)c1=O (stereo not shown) [Compound 36, 3-(5-(4-(4-(4-(6-((6-acetyl-8-cyclopentyl-5-methyl-7-oxo-7,8-dihydropyrido[2,3-d]pyrimidin-2-yl)amino)pyridin-3-yl)piperazin-1-yl)piperidine-1-carbonyl)piperazin-1-yl)-1-oxoisoindolin-2-yl)piperidine-2,6-dione] | 50 to 200 | > 200 | > 60 | > 200 | > 60 | – |
| CC(=O)c1c(C)c2cnc(Nc3ccc(N4CCN(CCCCNc5ccc6c(c5)CN(C5CCC(=O)NC5=O)C6=O)CC4)cn3)nc2n(C2CCCC2)c1=O (stereo not shown) [Compound 54, 3-(5-((4-(4-(6-((6-acetyl-8-cyclopentyl-5-methyl-7-oxo-7,8-dihydropyrido[2,3-d]pyrimidin-2-yl)amino)pyridin-3-yl)piperazin-1-yl)butyl)amino)-1-oxoisoindolin-2-yl)piperidine-2,6-dione] | < 50 | 50 to 200 | > 60 | 50 to 200 | > 60 | – |
| CC(=O)c1c(C)c2cnc(Nc3ccc(N4CCN(CCC5CCN(C(=O)Nc6ccc7c(c6)C(=O)N(C6CCC(=O)NC6=O)C7=O)CC5)CC4)cn3)nc2n(C2CCCC2)c1=O (stereo not shown) [Compound 45, 4-(2-(4-(6-((6-acetyl-8-cyclopentyl-5-methyl-7-oxo-7,8-dihydropyrido[2,3-d]pyrimidin-2-yl)amino)pyridin-3-yl)piperazin-1-yl)ethyl)-N-(2-(2,6-dioxopiperidin-3-yl)-1,3-dioxoisoindolin-5-yl)piperidine-1-carboxamide] | 50 to 200 | 50 to 200 | > 60 | 50 to 200 | > 60 | – |
| CC(=O)c1c(C)c2cnc(Nc3ccc(N4CCN(C(=O)N5CCC(CN6CCN(c7ccc8c(c7)CN(C7CCC(=O)NC7=O)C8=O)CC6)CC5)CC4)cn3)nc2n(C2CCCC2)c1=O (stereo not shown) [Compound 12, 3-(5-(4-((1-(4-(6-((6-acetyl-8-cyclopentyl-5-methyl-7-oxo-7,8-dihydropyrido[2,3-d]pyrimidin-2-yl)amino)pyridin-3-yl)piperazine-1-carbonyl)piperidin-4-yl)methyl)piperazin-1-yl)-1-oxoisoindolin-2-yl)piperidine-2,6-dione] | 50 to 200 | > 200 | > 60 | > 200 | > 60 | – |

The next lines start with results.

| IC50 [1] [nM] | DC50 (CDK6) [nM] | Dmax (CDK6) [%] | DC50 (CDK4) [nM] | Dmax (CDK4) [%] | SMILES | inhibition of cell proliferation of Mino cells ([1]; Mino cells, 0-1 μM, result in words) |
| --- | --- | --- | --- | --- | --- | --- |
| < 50 | < 50 | > 80 | < 50 | > 80 | CC(=O)c1c(C)c2cnc(Nc3ccc(N4CCN(CC5CCN(c6ccc7c(c6)C(=O)N(C6CCC(=O)NC6=O)C7=O)CC5)CC4)cn3)nc2n(C2CCCC2)c1=O (stereo not shown) [Compound 65, 5-(4-((4-(6-((6-acetyl-8-cyclopentyl-5-methyl-7-oxo-7,8-dihydropyrido[2,3-d]pyrimidin-2-yl)amino)pyridin-3-yl)piperazin-1-yl)methyl)piperidin-1-yl)-2-(2,6-dioxopiperidin-3-yl) isoindoline-1,3-dione] | dose-dependent inhibition of cell proliferation |
| < 50 | < 50 | > 80 | < 50 | > 80 | CC(=O)c1c(C)c2cnc(Nc3ccc(N4CCN(CC5CN(c6ccc7c(c6)C(=O)N(C6CCC(=O)NC6=O)C7=O)C5)CC4)cn3)nc2n(C2CCCC2)c1=O (stereo not shown) [Compound 80, 5-(3-((4-(6-((6-acetyl-8-cyclopentyl-5-methyl-7-oxo-7,8-dihydropyrido[2,3-d]pyrimidin-2-yl)amino)pyridin-3-yl)piperazin-1-yl)methyl)azetidin-1-yl)-2-(2,6-dioxopiperidin-3-yl) isoindoline-1,3-dione] | – |
| < 50 | < 50 | > 80 | < 50 | > 80 | Cc1nc2c(F)cc(-c3nc(Nc4ccc(CN5CCN(C6CCN(c7ccc(C(=O)NC8CCC(=O)NC8=O)cc7)CC6)CC5)cn4)ncc3F)cc2n1C(C)C (stereo not shown) [Compound 150, N-(2,6-dioxopiperidin-3-yl)-4-(4-(4-((6-((5-fluoro-4-(4-fluoro-1-isopropyl-2-methyl-1H-benzo[d]imidazol-6-yl)pyrimidin-2-yl)amino)pyridin-3-yl)methyl)piperazin-1-yl)piperidin-1-yl)benzamide] | – |
| < 50 | < 50 | > 80 | < 50 | > 80 | Cc1nc2c(F)cc(-c3nc(Nc4ccc(CN5CCN(CC6CN(c7ccc(N8CCC(=O)NC8=O)cc7)C6)CC5)cn4)ncc3F)cc2n1C(C)C [Compound 106, 1-(4-(3-((4-((6-((5-fluoro-4-(4-fluoro-1-isopropyl-2-methyl-1H-benzo[d]imidazol-6-yl)pyrimidin-2-yl)amino)pyridin-3-yl)methyl)piperazin-1-yl)methyl)azetidin-1-yl)phenyl) dihydropyrimidine-2,4(1H,3H)-dione] | – |
| 50 to 200 | 50 to 200 | > 80 | 50 to 200 | > 60 | CC(=O)c1c(C)c2cnc(Nc3ccc(N4CCN(CCN5CCN(c6ccc7c(c6)CN(C6CCC(=O)NC6=O)C7=O)CC5)CC4)cn3)nc2n(C2CCCC2)c1=O (stereo not shown) [Compound 68, 3-(5-(4-(2-(4-(6-((6-acetyl-8-cyclopentyl-5-methyl-7-oxo-7,8-dihydropyrido[2,3-d]pyrimidin-2-yl)amino)pyridin-3-yl)piperazin-1-yl)ethyl)piperazin-1-yl)-1-oxoisoindolin-2-yl)piperidine-2,6-dione] | – |
| 50 to 200 | 50 to 200 | > 60 | 50 to 200 | > 60 | CC(=O)c1c(C)c2cnc(Nc3ccc(N4CCN(CCCN(C)c5ccc6c(c5)CN(C5CCC(=O)NC5=O)C6=O)CC4)cn3)nc2n(C2CCCC2)c1=O (stereo not shown) [Compound 58, 3-(5-((3-(4-(6-((6-acetyl-8-cyclopentyl-5-methyl-7-oxo-7,8-dihydropyrido[2,3-d]pyrimidin-2-yl)amino)pyridin-3-yl)piperazin-1-yl)propyl) (methyl)amino)-1-oxoisoindolin-2-yl) piperidine-2,6-dione] | – |
| < 50 | 50 to 200 | > 80 | 50 to 200 | > 80 | Cc1nc2c(F)cc(-c3nc(Nc4ccc(CN5CCN(C(=O)C6CN(c7ccc8c(c7)CN(C7CCC(=O)NC7=O)C8=O)C6)CC5)cn4)ncc3F)cc2n1C(C)C (stereo not shown) [Compound 136, 3-(5-(3-(4-((6-((5-fluoro-4-(4-fluoro-1-isopropyl-2-methyl-1H-benzo[d]imidazol-6-yl)pyrimidin-2-yl)amino)pyridin-3-yl)methyl)piperazine-1-carbonyl)azetidin-1-yl)-1-oxoisoindolin-2-yl) piperidine-2,6-dione] | – |

Source: patent US20230295118A1 (EnhancedBio Inc., priority 2022, published 2023)
